In the NIST ThermoML archive (doi:10.1016/j.tca.2016.07.005):
± gives the expanded uncertainty stated by the source.

Assay: xn = mol fraction of the nth substance listed
Conditions: 101.3 kPa, Liquid; for viscosity: Concentric cylinders viscometry; for mass density: Vibrating tube method

O=S1(=O)CCCC1 [sulfolane] + OCC(O)CO
Conditions	mass density [kg/m3]	viscosity [mPa·s]
313.15 K, x2 = 0	1251.7 ± 2	8.1 ± 0.8
313.15 K, x2 = 0.1002	1249.6 ± 2	8.5 ± 0.9
313.15 K, x2 = 0.2002	1248.8 ± 2	10.5 ± 1.1
313.15 K, x2 = 0.3002	1248.4 ± 2	14.4 ± 1.4
313.15 K, x2 = 0.4001	1247.8 ± 2	19.2 ± 1.9
313.15 K, x2 = 0.5001	1247.5 ± 2	30.4 ± 3.1
313.15 K, x2 = 0.5999	1247.5 ± 2	46.2 ± 4.6
313.15 K, x2 = 0.6999	1247.5 ± 2	70.7 ± 7.1
313.15 K, x2 = 0.7999	1248.5 ± 2	101 ± 10
313.15 K, x2 = 0.8993	1248.9 ± 2	164 ± 17
323.15 K, x2 = 0	1244 ± 2	6.4 ± 0.6
323.15 K, x2 = 0.1002	1240.9 ± 2	7.2 ± 0.7
323.15 K, x2 = 0.2002	1240.1 ± 2	8.5 ± 0.9
323.15 K, x2 = 0.3002	1239.7 ± 2	11.2 ± 1.1
323.15 K, x2 = 0.4001	1239.2 ± 2	14.4 ± 1.4
323.15 K, x2 = 0.5001	1239.1 ± 2	22 ± 2.2
323.15 K, x2 = 0.5999	1239.2 ± 2	32.2 ± 3.2
323.15 K, x2 = 0.6999	1239.7 ± 2	45.9 ± 4.6
323.15 K, x2 = 0.7999	1241.2 ± 2	66.5 ± 6.7
323.15 K, x2 = 0.8993	1241.9 ± 2	103 ± 10
333.15 K, x2 = 0	1235.4 ± 2	5.2 ± 0.5
333.15 K, x2 = 0.1002	1232.1 ± 2	5.8 ± 0.6
333.15 K, x2 = 0.2002	1231.3 ± 2	6.6 ± 0.7
333.15 K, x2 = 0.3002	1231 ± 2	8.3 ± 0.8
333.15 K, x2 = 0.4001	1230.7 ± 2	10.4 ± 1
333.15 K, x2 = 0.5001	1230.7 ± 2	14.6 ± 1.5
333.15 K, x2 = 0.5999	1231.1 ± 2	20.3 ± 2
333.15 K, x2 = 0.6999	1232 ± 2	28.8 ± 2.9
333.15 K, x2 = 0.7999	1233.7 ± 2	41.8 ± 4.2
333.15 K, x2 = 0.8993	1234.8 ± 2	61.7 ± 6.2
343.15 K, x2 = 0	1225 ± 2	4.3 ± 0.4
343.15 K, x2 = 0.1002	1223.2 ± 2	4.7 ± 0.5
343.15 K, x2 = 0.2002	1222.5 ± 2	5.3 ± 0.5
343.15 K, x2 = 0.3002	1222.3 ± 2	6.3 ± 0.6
343.15 K, x2 = 0.4001	1222.3 ± 2	7.7 ± 0.8
343.15 K, x2 = 0.5001	1222.7 ± 2	10.2 ± 1
343.15 K, x2 = 0.5999	1223.3 ± 2	13.6 ± 1.4
343.15 K, x2 = 0.6999	1224.1 ± 2	18.5 ± 1.9
343.15 K, x2 = 0.7999	1226.2 ± 2	26.6 ± 2.7
343.15 K, x2 = 0.8993	1227.5 ± 2	38 ± 3.8
353.15 K, x2 = 0	1215 ± 2	3.7 ± 0.4
353.15 K, x2 = 0.1002	1214.3 ± 2	3.9 ± 0.4
353.15 K, x2 = 0.2002	1213.7 ± 2	4.3 ± 0.4
353.15 K, x2 = 0.3002	1213.6 ± 2	4.9 ± 0.5
353.15 K, x2 = 0.4001	1213.8 ± 2	6 ± 0.6
353.15 K, x2 = 0.5001	1214.4 ± 2	7.4 ± 0.7
353.15 K, x2 = 0.5999	1215.3 ± 2	9.8 ± 1
353.15 K, x2 = 0.6999	1216.1 ± 2	12.9 ± 1.3
353.15 K, x2 = 0.7999	1218.5 ± 2	18 ± 1.8
353.15 K, x2 = 0.8993	1220.2 ± 2	24.9 ± 2.5
363.15 K, x2 = 0	1206 ± 2	3.2 ± 0.3
363.15 K, x2 = 0.1002	1205.3 ± 2	3.3 ± 0.3
363.15 K, x2 = 0.2002	1204.8 ± 2	3.5 ± 0.4
363.15 K, x2 = 0.3002	1204.8 ± 2	4 ± 0.4
363.15 K, x2 = 0.4001	1205.1 ± 2	4.7 ± 0.5
363.15 K, x2 = 0.5001	1205.9 ± 2	5.8 ± 0.6
363.15 K, x2 = 0.5999	1206.9 ± 2	7.4 ± 0.7
363.15 K, x2 = 0.6999	1208 ± 2	9.4 ± 0.9
363.15 K, x2 = 0.7999	1210.7 ± 2	12.7 ± 1.3
363.15 K, x2 = 0.8993	1212.7 ± 2	17.1 ± 1.7
